Reference: PubChem BioAssay AID2060326 (Molecular Pharmacology Branch, DTP, NCI, 2025)

System: MDA-MB-468 multi-cell spheroids, viability
Test: Anticancer human tumor MDA-MB-468 cell line growth inhibition [IpAb];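 note: spheroids exposed to agents for seven days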;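 for viability, T/C: 100% = DMSO vehicle control viability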
Settings: for IC50: curve of first compound; for viability, T/C: stronger effect = lower value
Method in brief: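 Multi-cell spheroids of 60% tumour cells, 25% HUVEC and 15% MSC in ultra-low-attachment U-bottom wells, treated with agents combined with ipatasertib or abemaciclib. Half-log ranges top out near clinical Cmax, or 10 microM when Cmax is unknown.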

[1] = second compound 0.1 µM, first compound 0.0316 µM
[2] = second compound 0.1 µM, first compound 0.1 µM
[3] = second compound 0.1 µM, first compound 0.316 µM
[4] = second compound 0.1 µM, first compound 1 µM
[5] = second compound 0.316 µM, first compound 0.0316 µM
[6] = second compound 0.316 µM, first compound 0.1 µM
[7] = second compound 0.316 µM, first compound 0.316 µM
[8] = second compound 0.316 µM, first compound 1 µM
[9] = second compound 1 µM, first compound 0.0316 µM
[10] = second compound 1 µM, first compound 0.1 µM
[11] = second compound 1 µM, first compound 0.316 µM
[12] = second compound 1 µM, first compound 1 µM
[13] = second compound 3.16 µM, first compound 0.0316 µM
[14] = second compound 3.16 µM, first compound 0.1 µM
[15] = second compound 3.16 µM, first compound 0.316 µM
[16] = second compound 3.16 µM, first compound 1 µM
[17] = second compound 10 µM, first compound 0.0316 µM
[18] = second compound 10 µM, first compound 0.1 µM
[19] = second compound 10 µM, first compound 0.316 µM
[20] = second compound 10 µM, first compound 1 µM
[21] = second compound 0.1 µM, first compound 3.16 µM
[22] = second compound 0.1 µM, first compound 10 µM
[23] = second compound 0.316 µM, first compound 3.16 µM
[24] = second compound 0.316 µM, first compound 10 µM
[25] = second compound 1 µM, first compound 3.16 µM
[26] = second compound 1 µM, first compound 10 µM
[27] = second compound 3.16 µM, first compound 3.16 µM
[28] = second compound 3.16 µM, first compound 10 µM
[29] = second compound 10 µM, first compound 3.16 µM
[30] = second compound 10 µM, first compound 10 µM

Compound `CC(=O)c1c(C)c2cnc(Nc3ccc(N4CCNCC4)cn3)nc2n(C2CCCC2)c1=O` + CC(C)NCC(C(=O)N1CCN(c2ncnc3c2C(C)CC3O)CC1)c1ccc(Cl)cc1 has an IC50 (second compound 0.1 µM) greater than 300 nM, an IC50 (second compound 0.316 µM) greater than 300 nM and an IC50 (second compound 1 µM) of 4.44 nM. The IC50 (second compound 3.16 µM) was less than 0.949 nM, the IC50 (second compound 10 µM) was less than 0.949 nM and the viability, T/C (second compound 0.1 µM, first compound 0.000949 µM) was 87.4%. The viability, T/C (second compound 0.1 µM, first compound 0.003 µM) was 80.3%, the viability, T/C (second compound 0.1 µM, first compound 0.00949 µM) was 73.1% and the viability, T/C (second compound 0.1 µM, first compound 0.03 µM) was 81%. For the same compound, the viability, T/C (second compound 0.1 µM, first compound 0.0949 µM) was 71.4%, the viability, T/C (second compound 0.1 µM, first compound 0.3 µM) was 77.8% and the viability, T/C (second compound 0.316 µM, first compound 0.000949 µM) was 66.1%. It also gave a viability, T/C (second compound 0.316 µM, first compound 0.003 µM) of 61%, a viability, T/C (second compound 0.316 µM, first compound 0.00949 µM) of 57.4% and a viability, T/C (second compound 0.316 µM, first compound 0.03 µM) of 54.8%. It also gave a viability, T/C (second compound 0.316 µM, first compound 0.0949 µM) of 59.5%, a viability, T/C (second compound 0.316 µM, first compound 0.3 µM) of 59.5% and a viability, T/C (second compound 1 µM, first compound 0.000949 µM) of 57.9%. For the same compound, the viability, T/C (second compound 1 µM, first compound 0.003 µM) was 51.8%, the viability, T/C (second compound 1 µM, first compound 0.00949 µM) was 46.4% and the viability, T/C (second compound 1 µM, first compound 0.03 µM) was 48.1%. The viability, T/C (second compound 1 µM, first compound 0.0949 µM) was 49.6%, the viability, T/C (second compound 1 µM, first compound 0.3 µM) was 48.3% and the viability, T/C (second compound 3.16 µM, first compound 0.000949 µM) was 35.9%. For the same compound, the viability, T/C (second compound 3.16 µM, first compound 0.003 µM) was 36.4%, the viability, T/C (second compound 3.16 µM, first compound 0.00949 µM) was 31.9% and the viability, T/C (second compound 3.16 µM, first compound 0.03 µM) was 32.7%. It also gave a viability, T/C (second compound 3.16 µM, first compound 0.0949 µM) of 29.5%, a viability, T/C (second compound 3.16 µM, first compound 0.3 µM) of 29.8% and a viability, T/C (second compound 10 µM, first compound 0.000949 µM) of 18.6%. It also gave a viability, T/C (second compound 10 µM, first compound 0.003 µM) of 19.3%, a viability, T/C (second compound 10 µM, first compound 0.00949 µM) of 19.9% and a viability, T/C (second compound 10 µM, first compound 0.03 µM) of 17.5%. It also gave a viability, T/C (second compound 10 µM, first compound 0.0949 µM) of 17.3% and a viability, T/C (second compound 10 µM, first compound 0.3 µM) of 17.6%.
`COc1c(OCCCN2CCOCC2)ccc2c3n(c(=NC(=O)c4cnc(N)nc4)nc12)CCN3` + CC(C)NCC(C(=O)N1CCN(c2ncnc3c2C(C)CC3O)CC1)c1ccc(Cl)cc1 gave an IC50 (second compound 0.1 µM) of 83.7 nM, an IC50 (second compound 0.316 µM) of 33.8 nM and an IC50 (second compound 1 µM) of less than 3.16 nM. For the same compound, the IC50 (second compound 3.16 µM) was less than 3.16 nM, the IC50 (second compound 10 µM) was less than 3.16 nM and the viability, T/C (second compound 0.1 µM, first compound 0.00316 µM) was 98.4%. It also gave a viability, T/C (second compound 0.1 µM, first compound 0.01 µM) of 78.2%, a viability, T/C [1] of 70.2% and a viability, T/C [2] of 49.7%. For the same compound, the viability, T/C [3] was 20.3%, the viability, T/C [4] was 3.61% and the viability, T/C (second compound 0.316 µM, first compound 0.00316 µM) was 68.5%. The viability, T/C (second compound 0.316 µM, first compound 0.01 µM) was 56.1%, the viability, T/C [5] was 54% and the viability, T/C [6] was 36.3%. The viability, T/C [7] was 18.1%, the viability, T/C [8] was 2.31% and the viability, T/C (second compound 1 µM, first compound 0.00316 µM) was 51.3%. For the same compound, the viability, T/C (second compound 1 µM, first compound 0.01 µM) was 40.3%, the viability, T/C [9] was 38.9% and the viability, T/C [10] was 26.8%. For the same compound, the viability, T/C [11] was 11.9%, the viability, T/C [12] was 1.77% and the viability, T/C (second compound 3.16 µM, first compound 0.00316 µM) was 30.4%. For the same compound, the viability, T/C (second compound 3.16 µM, first compound 0.01 µM) was 26.5%, the viability, T/C [13] was 23% and the viability, T/C [14] was 19.1%. The viability, T/C [15] was 9.55%, the viability, T/C [16] was 1.46% and the viability, T/C (second compound 10 µM, first compound 0.00316 µM) was 16.1%. It also gave a viability, T/C (second compound 10 µM, first compound 0.01 µM) of 12.8%, a viability, T/C [17] of 11% and a viability, T/C [18] of 8.37%. It also gave a viability, T/C [19] of 4.92% and a viability, T/C [20] of 0.95%.
Work on `Cc1nc(NC(=O)N2CCCC2C(N)=O)sc1-c1ccnc(C(C)(C)C(F)(F)F)c1` (stereo not given) + CC(C)NCC(C(=O)N1CCN(c2ncnc3c2C(C)CC3O)CC1)c1ccc(Cl)cc1 yielded an IC50 (second compound 0.1 µM) of 5510 nM, an IC50 (second compound 0.316 µM) of 3820 nM and an IC50 (second compound 1 µM) of less than 31.6 nM. The IC50 (second compound 3.16 µM) was less than 31.6 nM, the IC50 (second compound 10 µM) was less than 31.6 nM and the viability, T/C [1] was 82.6%. It also gave a viability, T/C [2] of 75.6%, a viability, T/C [3] of 79.1% and a viability, T/C [4] of 75.6%. It also gave a viability, T/C [21] of 72.3%, a viability, T/C [22] of 26.3% and a viability, T/C [5] of 61.5%. For the same compound, the viability, T/C [6] was 61.1%, the viability, T/C [7] was 58.9% and the viability, T/C [8] was 53.7%. The viability, T/C [23] was 57.1%, the viability, T/C [24] was 16.3% and the viability, T/C [9] was 47.8%. It also gave a viability, T/C [10] of 45.7%, a viability, T/C [11] of 48% and a viability, T/C [12] of 36.8%. It also gave a viability, T/C [25] of 31.4%, a viability, T/C [26] of 8.2% and a viability, T/C [13] of 32.6%. For the same compound, the viability, T/C [14] was 30.6%, the viability, T/C [15] was 25.5% and the viability, T/C [16] was 20.8%. It also gave a viability, T/C [27] of 20.6%, a viability, T/C [28] of 4.36% and a viability, T/C [17] of 16.3%. For the same compound, the viability, T/C [18] was 14.8%, the viability, T/C [19] was 13.2% and the viability, T/C [20] was 10.3%. For the same compound, the viability, T/C [29] was 7.57% and the viability, T/C [30] was 1.53%.
`Cn1nccc1Nc1nccc(-c2ccn(C(CO)c3ccc(Cl)c(F)c3)c(=O)c2)n1` (stereo not given) + CC(C)NCC(C(=O)N1CCN(c2ncnc3c2C(C)CC3O)CC1)c1ccc(Cl)cc1 was tested, and the IC50 (second compound 0.1 µM) was 3290 nM, the IC50 (second compound 0.316 µM) was 1350 nM and the IC50 (second compound 1 µM) was 417 nM. It also gave an IC50 (second compound 3.16 µM) of less than 31.6 nM, an IC50 (second compound 10 µM) of less than 31.6 nM and a viability, T/C [1] of 90.7%. For the same compound, the viability, T/C [2] was 88.3%, the viability, T/C [3] was 85% and the viability, T/C [4] was 65.3%. It also gave a viability, T/C [21] of 57.3%, a viability, T/C [22] of 2.08% and a viability, T/C [5] of 66%. It also gave a viability, T/C [6] of 54.9%, a viability, T/C [7] of 62% and a viability, T/C [8] of 46.3%. The viability, T/C [23] was 44.3%, the viability, T/C [24] was 0.8% and the viability, T/C [9] was 57.9%. The viability, T/C [10] was 56%, the viability, T/C [11] was 51.3% and the viability, T/C [12] was 42%. It also gave a viability, T/C [25] of 16.4%, a viability, T/C [26] of 0.2% and a viability, T/C [13] of 38.6%. The viability, T/C [14] was 38.9%, the viability, T/C [15] was 37% and the viability, T/C [16] was 23.4%. For the same compound, the viability, T/C [27] was 5.84%, the viability, T/C [28] was 0.17% and the viability, T/C [17] was 18.8%. For the same compound, the viability, T/C [18] was 15.8%, the viability, T/C [19] was 19% and the viability, T/C [20] was 9.63%. The viability, T/C [29] was 1.96% and the viability, T/C [30] was 0.26%.
